pKi: −log10 of the molar value.
Molecular target: Mitogen-activated protein kinase 1 (Homo sapiens, UniProt P28482)
Experiment: Assay 1

Mitogen-activated protein kinase 1, sequence (P28482 whole entry): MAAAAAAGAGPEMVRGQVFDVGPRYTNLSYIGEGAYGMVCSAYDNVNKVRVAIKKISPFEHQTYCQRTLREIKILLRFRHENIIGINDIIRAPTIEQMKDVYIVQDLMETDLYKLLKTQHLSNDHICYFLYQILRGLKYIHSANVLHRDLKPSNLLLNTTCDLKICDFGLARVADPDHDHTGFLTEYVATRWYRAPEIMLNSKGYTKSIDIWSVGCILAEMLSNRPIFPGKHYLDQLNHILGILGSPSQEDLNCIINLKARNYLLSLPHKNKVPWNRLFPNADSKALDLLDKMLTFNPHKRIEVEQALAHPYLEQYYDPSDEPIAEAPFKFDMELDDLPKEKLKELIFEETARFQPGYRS

Structure (SMILES)	pKi
CCOC(=O)OC[C@H](CC)Nc1ncc(C)c(-c2c[nH]c(C(=O)N[C@H](CO)c3cccc(Cl)c3)c2)n1 [erk000669]	7.57
O=C(N[C@H](CO)c1cccc(Cl)c1)c1cc(-c2ncnc(Nc3ccccc3)n2)c[nH]1 [erk000671]	8.70
CC(C)Nc1cc(-c2c[nH]c(C(=O)N[C@H](CO)c3cccc(Cl)c3)c2)ncn1 [erk000672]	7.52
CC[C@@H](CO)Nc1cc(-c2c[nH]c(C(=O)N[C@H](CO)c3cccc(Cl)c3)c2)ncn1 [erk000673]	7.74
Cc1cnc(N[C@@H](CO)CC(F)(F)F)nc1-c1c[nH]c(C(=O)N[C@H](CO)c2cccc(Cl)c2)c1 [erk000675]	8.10
CCOP(=O)(OCC)OC[C@H](CC)Nc1ncc(C)c(-c2c[nH]c(C(=O)N[C@H](COP(=O)(OCC)OCC)c3cccc(Cl)c3)c2)n1 [erk000676]	5.97
Cc1cnc(N[C@@H](C)COC(=O)C(C)C)nc1-c1c[nH]c(C(=O)N[C@H](COC(=O)C(C)C)c2cccc(Cl)c2)c1 [erk000677]	5.88
CC[C@@H](CO)Nc1ncc(C)c(-c2cc(C(=O)N[C@H](CO)c3cccc(Cl)c3)n(CC)c2)n1 [erk000678]	8.40
CCn1cc(-c2nc(N[C@@H](C)CO)ncc2C)cc1C(=O)N[C@H](CO)c1cccc(Cl)c1 [erk000679]	8.30
CCn1cc(-c2nc(NCC(F)(F)F)ncc2C)cc1C(=O)N[C@H](CO)c1cccc(Cl)c1 [erk000680]	7.47
CC(=O)OC[C@H](C)Nc1ncc(C)c(-c2c[nH]c(C(=O)N[C@H](COC(C)=O)c3cccc(Cl)c3)c2)n1 [erk000682]	6.48
CC[C@@H](COC(=O)OC(C)C)Nc1ncc(C)c(-c2c[nH]c(C(=O)N[C@H](CO)c3cccc(Cl)c3)c2)n1 [erk000684]	6.80
CC[C@@H](COC(=O)[C@@H](N)C(C)C)Nc1ncc(C)c(-c2c[nH]c(C(=O)N[C@H](COC(=O)[C@@H](N)C(C)C)c3cccc(Cl)c3)c2)n1 [erk000685]	6.12
CC[C@@H](COC(=O)C(C)C)Nc1ncc(C)c(-c2c[nH]c(C(=O)N[C@H](CO)c3cccc(Cl)c3)c2)n1 [erk000689]	7.82
CCOP(=O)(OCC)OC[C@H](CC)Nc1ncc(C)c(-c2c[nH]c(C(=O)N[C@H](CO)c3cccc(Cl)c3)c2)n1 [erk000690]	5.96
Cc1cnc(N)nc1-c1c[nH]c(C(=O)N[C@H](CO)c2cccc(Cl)c2)c1 [erk000691]	7.82
Cc1cnc(NCC(F)(F)F)nc1-c1cc(C(=O)N[C@H](CO)c2cccc(Cl)c2)n(C)c1 [erk000692]	8.22
CC[C@@H](CO)Nc1ncc(C)c(-c2c[nH]c(C(=O)N[C@H](COC(=O)OC(C)C)c3cccc(Cl)c3)c2)n1 [erk000693]	7.43
CC[C@@H](CO)Nc1ncc(C)c(-c2cc(C(=O)N[C@H](CO)c3cccc(Cl)c3)n(COC)c2)n1 [erk000694]	8.30
CC[C@@H](COC(=O)C(C)C)Nc1ncc(Cl)c(-c2c[nH]c(C(=O)N[C@H](COC(=O)C(C)C)c3ccccc3)c2)n1 [erk000696]	6.82
CC[C@@H](CO)Nc1ncc(F)c(-c2c[nH]c(C(=O)N[C@H](CO)c3cccc(Cl)c3)c2)n1 [erk000697]	8.52
CC[C@@H](COC(=O)COCCOC)Nc1ncc(C)c(-c2c[nH]c(C(=O)N[C@H](CO)c3cccc(Cl)c3)c2)n1 [erk000698]	7.77
CC[C@@H](COC(=O)COCCOCCOC)Nc1ncc(C)c(-c2c[nH]c(C(=O)N[C@H](CO)c3cccc(Cl)c3)c2)n1 [erk000699]	7.89

Structure (SMILES)	pKi
Cc1[nH]c(C(=O)N[C@H](CO)c2cccc(Cl)c2)c(C)c1-c1ccnc(Nc2ccc(F)cc2Cl)n1 [erk000700]	8.05
CCONc1ncc(C)c(-c2cc(C(=O)N[C@H](CO)c3cccc(Cl)c3)n(C)c2)n1 [erk000701]	7.89
CC[C@@H](COC(=O)C(C)(C)C)Nc1ncc(C)c(-c2c[nH]c(C(=O)N[C@H](CO)c3cccc(Cl)c3)c2)n1 [erk000702]	7.26
CCOC(=O)N1CCC(Nc2ncc(Cl)c(-c3c[nH]c(C(=O)N[C@H](CO)c4cccc(Cl)c4)c3)n2)CC1 [erk000703]	8.15
Cc1cnc(N[C@H]2CCOC2)nc1-c1cc(C(=O)N[C@H](CO)c2ccccc2)n(C)c1 [erk000704]	8.52
CCONc1ncc(Cl)c(-c2c[nH]c(C(=O)N[C@H](CO)c3cccc(C)c3)c2)n1 [erk000705]	8.40
Cc1cnc(N[C@@H](C)CO)nc1-c1cc(C(=O)N[C@H](CO)c2ccccc2)n(C)c1 [erk000706]	8.22
CC(C)Nc1ncc(Cl)c(-c2c[nH]c(C(=O)N(C)[C@H](CO)c3ccccc3)c2)n1 [erk000708]	8.22
CC[C@@H](CO)Nc1ncc(C)c(-c2c[nH]c(C(=O)N(C)[C@H](CO)c3cccc(Cl)c3)c2)n1 [erk000709]	8.70
CC[C@@H](CO)Nc1ncc(Cl)c(-c2cc(C(=O)N[C@H](CO)c3ccccc3)n(C)c2)n1 [erk000710]	8.40
CC[C@@H](CO)Nc1ncc(Cl)c(N2CCN(C(=O)N[C@H](CO)c3cccc(Cl)c3)CC2)n1 [erk000711]	7.42
Fc1cccc(-c2cnoc2-c2c[nH]c3ncc(-c4ccncc4)cc23)c1F [erk000712]	6.72
CC[C@@H](COC(=O)CCC(=O)O)Nc1ncc(C)c(-c2c[nH]c(C(=O)N[C@H](COC(=O)CCC(=O)O)c3cccc(Cl)c3)c2)n1 [erk000713]	6.93
CC[C@@H](COC(=O)[C@@H](N)C(C)(C)C)Nc1ncc(C)c(-c2c[nH]c(C(=O)N[C@H](COC(=O)[C@@H](N)C(C)(C)C)c3cccc(Cl)c3)c2)n1 [erk000714]	7.52
CC[C@@H](COC(=O)[C@@H](NC)C(C)C)Nc1ncc(C)c(-c2c[nH]c(C(=O)N[C@H](COC(=O)[C@@H](NC)C(C)C)c3cccc(Cl)c3)c2)n1 [erk000715]	5.72
CC[C@@H](COC(=O)COCCOC)Nc1ncc(C)c(-c2c[nH]c(C(=O)N[C@H](COC(=O)COCCOC)c3cccc(Cl)c3)c2)n1 [erk000716]	6.37
CC[C@@H](COC(=O)[C@H](C)N)Nc1ncc(C)c(-c2c[nH]c(C(=O)N[C@H](COC(=O)[C@H](C)N)c3cccc(Cl)c3)c2)n1 [erk000717]	7.42
CC[C@@H](COC(=O)CCC(=O)N1CCOCC1)Nc1ncc(C)c(-c2c[nH]c(C(=O)N[C@H](COC(=O)CCC(=O)N3CCOCC3)c3cccc(Cl)c3)c2)n1 [erk000718]	6.59
CC[C@@H](COC(=O)[C@H](CC(C)C)NC)Nc1ncc(C)c(-c2c[nH]c(C(=O)N[C@H](COC(=O)[C@H](CC(C)C)NC)c3cccc(Cl)c3)c2)n1 [erk000719]	6.28
CC[C@@H](COC(=O)C(C)(C)N)Nc1ncc(C)c(-c2c[nH]c(C(=O)N[C@H](COC(=O)C(C)(C)N)c3cccc(Cl)c3)c2)n1 [erk000720]	6.70
CC[C@@H](CO)Nc1ncc(C)c(-c2c[nH]c(C(=O)N[C@H](COP(=O)(O)O)c3cccc(Cl)c3)c2)n1 [erk000721]	8.40
CC[C@@H](COP(=O)(O)O)Nc1ncc(C)c(-c2c[nH]c(C(=O)N[C@H](CO)c3cccc(Cl)c3)c2)n1 [erk000722]	6.38
C[C@@H]1CCN(C(=O)CC#N)C[C@@H]1N(C)c1nc(Nc2ccc(N3CCOCC3)cc2)nc2[nH]cnc12 [erk000723]	6.39
